Results on eight compounds are retold here after patent US7935824B2, “Ethylenediamine derivatives” (Daiichi Pharmaceutical Co., Ltd., priority 2000, dated 2011).

Structures can show the parent of a compound that is named as a salt.

The target of the test is T1, human FXa (Homo sapiens, UniProt P00742).
T1 construct: purchased Cosmobio ERL HFXa-1011
T1 sequence (P00742 235-488 limits assumed): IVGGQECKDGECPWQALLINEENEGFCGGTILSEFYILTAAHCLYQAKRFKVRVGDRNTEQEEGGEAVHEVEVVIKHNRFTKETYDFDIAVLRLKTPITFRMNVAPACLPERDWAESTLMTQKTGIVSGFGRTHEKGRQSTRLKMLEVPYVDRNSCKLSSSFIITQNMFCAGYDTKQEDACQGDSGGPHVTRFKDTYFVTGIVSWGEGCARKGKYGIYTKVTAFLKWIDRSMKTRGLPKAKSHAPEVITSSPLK
T1 sequence (P00742 41-179 partner limits assumed): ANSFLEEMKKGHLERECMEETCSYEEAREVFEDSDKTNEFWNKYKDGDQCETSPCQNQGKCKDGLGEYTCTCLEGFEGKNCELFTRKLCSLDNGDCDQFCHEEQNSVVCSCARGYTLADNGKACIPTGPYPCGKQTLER
The experiment in a line: Determination of FXa-inhibiting effect (IC50 value), chromogenic substrate S2222. The class given is biochemical. To be noted: 0.05 U/ml human FXa, substrate S2222, absorbance at 405 nm, room temperature, pH 7.4 buffer.
Compound `CC(C)(CO)N1CCc2nc(C(=O)N[C@@H]3CC(CO)C[C@H]3NC(=O)c3cc4cc(Cl)ccc4[nH]3)sc2C1` (single isomer, unassigned; stereoisomer b) [Example 70, (1R*,2R*)-N^1-[(5-Chloroindol-2-yl)carbonyl]-N^2-[5-(1-dimethyl-2-hydroxyethyl)-4,5,6,7-tetrahydrothiazolo-[5,4-c]pyridin-2-yl)carbonyl]-4-hydroxymethyl-1,2-cyclopentanediamine hydrochloride (Stereoisomer B)] showed an IC50 of 2.7 nM.

Regarding “(±)-cis-N^1(or N^2)-[(5-Chloroindol-2-yl)carbonyl]-4,4-(1,2-ethylenedioxy)-N^2(or N^1)-[(5-methyl-4,5,6,7-tetrahydrothiazolo[5,4-c]pyridin-2-yl)carbonyl]-1,2-cyclohexanediamine [Example 167]”, the 50% inhibitory concentration (IC50) was found to be 1.4 nM. This IC50 lies about 1.9-fold lower than the previous one.

The compound `CC(C)N1CCc2nc(C(=O)N[C@@H]3CC(CO)C[C@H]3NC(=O)c3cc4cc(Cl)ccc4[nH]3)sc2C1` (single isomer, unassigned; stereoisomer b) [Example 68, (1R*,2R*)-N^1-[(5-Chloroindol-2-yl)carbonyl]-4-hydroxymethyl-N^2-[(5-isopropyl-4,5,6,7-tetrahydro-thiazolo[5,4-c]pyridin-2-yl)carbonyl]-1,2-cyclopentanediamine hydrochloride (Stereoisomer B)] displayed an IC50 of 4.1 nM.

Compound `CN1CCc2nc(C(=O)N[C@@H]3CCCC[C@@H]3NC(=O)c3ccc4cc(Cl)ccc4c3)sc2C1` (racemic) [Example 10, (±)-cis-N^1-[(6-Chloronaphthalen-2-yl)carbonyl]-N^2-[(5-methyl-4,5,6,7-tetrahydrothiazolo[5,4-c]pyridin-2-yl)-carbonyl]-1,2-cyclohexanediamine hydrochloride] displayed a concentration for half-maximal inhibition (IC50) of 83 nM. Against the preceding compound, the IC50 is about 20-fold higher.

Regarding `CN1CCc2nc(C(=O)N[C@@H]3C[C@@H](CO)CC[C@H]3NC(=O)c3cc4cc(Cl)ccc4[nH]3)sc2C1` [Example 176, (1R,2R,4S)—N^1-[(5-Chloroindol-2-yl)carbonyl]-4-hydroxymethyl-N^2-[(5-methyl-4,5,6,7-tetrahydrothiazolo[5,4-c]pyridin-2-yl)carbonyl]-1,2-cyclohexanediamine], inhibition was half-maximal at 3.3 nM (IC50).

The compound `CN1Cc2nc(C(=O)N[C@@H]3CCCC[C@@H]3NC(=O)c3cc4cc(Cl)ccc4[nH]3)sc2C1` (racemic) [Example 41, (±)-cis-N^1-[(5-Chloroindol-2-yl)carbonyl]-N^2-[(5-methyl-4,6-dihydro-5H-pyrrolo[3,4-d]thiazol-2-yl)carbonyl]-1,2-cyclohexanediamine hydrochloride] gave an IC50 of 36 nM.

The compound `CN1CCc2nc(C(=O)N[C@@H]3CCCC[C@@H]3NC(=O)c3cc4cc(Br)ccc4[nH]3)sc2C1` (racemic) [Example 15, (±)-cis-N^1-[(5-Bromoindol-2-yl)carbonyl]-N^2-[(5-methyl-4,5,6,7-tetrahydrothiazolo[5,4-c]pyridin-2-yl)carbonyl]-1,2-cyclohexanediamine hydrochloride] had an IC50 of 92 nM. This IC50 lies about 2.6-fold higher than the previous one.

`CN1CCc2nc(C(=O)N[C@@H]3CCC[C@H]3NC(=O)c3cc4cc(Cl)ccc4[nH]3)sc2C1` (racemic) [Example 3, (±)-trans-N^1-[(5-Chloroindol-2-yl)carbonyl]-N^2-[(5-methyl-4,5,6,7-tetrahydrothiazolo[5,4-c]pyridin-2-yl)carbonyl]-1,2-cyclopentanediamine hydrochloride]: the IC50 was found to be 86 nM.

Broadly, the IC50 is the midpoint of a concentration-inhibition curve. Low readings indicate inhibition by little substance, high ones a need for much substance.
